ChEMBL document CHEMBL5634079, “Development of novel celastrol-ligustrazine hybrids as potent peroxiredoxin 1 inhibitors against lung cancer” (Eur J Med Chem, 2023)
Active and inactive are the calls of the source. The calls are words filed in the database; no cut-off is given here.

How the values were obtained:
A549 [1] = experiment: Downregulation of PRDX2 level in human A549 cells at 2 to 4 uM by Western blot analysis; assay type: functional, cell-based; details: dose 2-4 µM
[2] = Antitumor activity against mouse Lewis lung carcinoma cell line implanted in C57BL/6J mouse assessed as tumor growth inhibition at 1 mg/kg, ip administered every day for 19 days; assay type: functional; details: 456 h, time 19 day, read-out: TGI
A549 [3] = experiment: Induction of apoptosis in human A549 cells assessed as necrotic cells at 4 uM incubated for 48 hrs by Annexin V-FITC and PI staining based flow cytometric analysis (reference value: 4.68%); assay type: functional
A549 [4] = experiment: Inhibition of ERK phosphorylation in human A549 cells at 2 to 4 uM by Western blot analysis; assay type: cell-based; details: dose 2-4 µM
[5] = biological target: RAF proto-oncogene serine/threonine-protein kinase (Homo sapiens) (UniProt P04049); experiment: Inhibition of C-RAF phosphorylation in human A549 cells at 2 to 4 uM by Western blot analysis; assay type: cell-based; details: dose 2-4 µM
A549 [6] = experiment: Downregulation of PRDX5 level in human A549 cells at 2 to 4 uM by Western blot analysis; assay type: functional, cell-based; details: dose 2-4 µM
Lewis lung carcinoma [7] = experiment: Antitumor activity against mouse Lewis lung carcinoma cell line implanted in C57BL/6J mouse assessed as tumor cell agglutination at 0.5 to 1 mg/kg, ip administered every day for 19 days by H and E staining based analysis; assay type: functional, organism-based; details: dose 0.5-1 mg/kg, time 19.0 day
A549 [8] = experiment: Induction of apoptosis in human A549 cells assessed as decrease in PCNA level at 2 to 4 uM by Western blot analysis; assay type: functional, cell-based; details: dose 2-4 µM
Lewis lung carcinoma [9] = experiment: Antitumor activity against mouse Lewis lung carcinoma cell line implanted in C57BL/6J mouse assessed as tumor cell contraction at 0.5 to 1 mg/kg, ip administered every day for 19 days by H and E staining based analysis; assay type: functional, organism-based; details: dose 0.5-1 mg/kg, time 19.0 day
A549 [10] = experiment: Induction of intracellular ROS generation in human A549 cells at 2 to 4 uM by DCFH-DA staining based flow cytometry analysis; assay type: functional, cell-based; details: dose 2-4 µM, time 6.0 hrs, TDE = time-dependent effect
A549 [11] = experiment: Induction of intracellular ROS generation in human A549 cells at 2 to 4 uM incubated for 6 hrs by DCFH-DA staining based flow cytometry analysis; assay type: functional, cell-based; details: dose 2-4 µM
Peroxiredoxin-1 = biological target: T1, Peroxiredoxin-1 (Homo sapiens, UniProt Q06830); experiment: Inhibition of PRDX1 (unknown origin) in presence of cofactor A/cofactor B/NADPH incubated for 25 mins; details: read-out: IC50
T1 sequence (Q06830 whole entry): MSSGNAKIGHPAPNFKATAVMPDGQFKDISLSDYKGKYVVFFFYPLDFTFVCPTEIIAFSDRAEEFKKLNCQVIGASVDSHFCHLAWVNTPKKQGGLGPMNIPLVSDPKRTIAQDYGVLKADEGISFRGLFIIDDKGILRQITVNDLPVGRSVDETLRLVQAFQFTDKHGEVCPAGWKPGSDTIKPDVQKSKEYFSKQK

A549 [12] = experiment: Downregulation of PRDX4 level in human A549 cells at 2 to 4 uM by Western blot analysis; assay type: functional, cell-based; details: dose 2-4 µM
NCI-H1975 = experiment: Antiproliferative activity against human NCI-H1975 cells assessed as inhibition of cell growth incubated for 48 hrs by MTT assay; assay type: functional, cell-based; details: NCI-H1975, 48 h
[13] = Toxicity in C57BL/6J mouse implanted with mouse Lewis lung carcinoma cell line assessed as spleen damage at 0.5 to 1 mg/kg, ip administered every day for 19 days; assay type: organism-based; details: in vivo, 456 h, dose 0.5-1 mg/kg, time 19 day
[14] = Toxicity in C57BL/6J mouse implanted with mouse Lewis lung carcinoma cell line assessed as kidney damage at 0.5 to 1 mg/kg, ip administered every day for 19 days; assay type: organism-based; details: in vivo, 456 h, dose 0.5-1 mg/kg, time 19 day
[15] = Toxicity in C57BL/6J mouse implanted with mouse Lewis lung carcinoma cell line assessed as heart damage at 0.5 to 1 mg/kg, ip administered every day for 19 days; assay type: organism-based; details: in vivo, 456 h, dose 0.5-1 mg/kg, time 19 day
A549 [16] = experiment: Inhibition of PI3K phosphorylation in human A549 cells at 2 to 4 uM by Western blot analysis; assay type: cell-based; details: dose 2-4 µM
A549 [17] = experiment: Induction of apoptosis in human A549 cells assessed as necrotic cells at 2 uM incubated for 48 hrs by Annexin V-FITC and PI staining based flow cytometric analysis (reference value: 4.68%); assay type: functional
A549 [18] = experiment: Inhibition of cell invasion in human A549 cells at 2 to 4 uM by crystal violet staining based microscopic analysis; assay type: functional; details: dose 2-4 µM, time 12-48 hrs, TDE = time-dependent effect
[19] = Antitumor activity against mouse Lewis lung carcinoma cell line implanted in C57BL/6J mouse assessed as tumor growth inhibition at 0.5 mg/kg, ip administered every day for 19 days; assay type: functional; details: 456 h, time 19 day, read-out: TGI
A549 [20] = experiment: Downregulation of PRDX1 gene expression in human A549 cells at 2 to 4 uM by Q-PCR analysis; assay type: functional, cell-based; details: dose 2-4 µM
A549 [21] = experiment: Inhibition of AKT phosphorylation in human A549 cells at 2 to 4 uM by Western blot analysis; assay type: cell-based; details: dose 2-4 µM
A549 [22] = experiment: Induction of apoptosis in human A549 cells assessed as viable cells at 2 uM incubated for 48 hrs by Annexin V-FITC and PI staining based flow cytometric analysis (reference value: 93.8%); assay type: functional; details: read-out: Activity
A549 [23] = experiment: Induction of apoptosis in human A549 cells assessed as early apoptotic cells at 2 uM incubated for 48 hrs by Annexin V-FITC and PI staining based flow cytometric analysis (reference value: 0.76%); assay type: functional
A549 [24] = experiment: Induction of apoptosis in human A549 cells assessed as viable cells at 4 uM incubated for 48 hrs by Annexin V-FITC and PI staining based flow cytometric analysis (reference value: 93.8%); assay type: functional; details: read-out: Activity
A549 [25] = experiment: Induction of apoptosis in human A549 cells assessed as late apoptotic cells at 4 uM incubated for 48 hrs by Annexin V-FITC and PI staining based flow cytometric analysis (reference value: 0.73%); assay type: functional
A549 [26] = experiment: Downregulation of PRDX3 level in human A549 cells at 2 to 4 uM by Western blot analysis; assay type: functional, cell-based; details: dose 2-4 µM
A549 [27] = experiment: Antiproliferative activity against human A549 cells assessed as inhibition of cell growth incubated for 48 hrs by MTT assay; assay type: functional, cell-based; details: A549, 48 h
MDA-MB-231 = experiment: Antiproliferative activity against human MDA-MB-231 cells assessed as inhibition of cell growth incubated for 48 hrs by MTT assay; assay type: functional, cell-based; details: MDA-MB-231, 48 h
[28] = Toxicity in C57BL/6J mouse implanted with mouse Lewis lung carcinoma cell line assessed as liver damage at 0.5 to 1 mg/kg, ip administered every day for 19 days; assay type: organism-based; details: in vivo, 456 h, dose 0.5-1 mg/kg, time 19 day
A549 [29] = experiment: Inhibition of cell migration in human A549 cells at 2 to 4 uM incubated for 24 hrs by inverted microscopic analysis; assay type: functional, cell-based; details: dose 2-4 µM
A549 [30] = experiment: Induction of apoptosis in human A549 cells assessed as increase in cleaved PARP expression at 2 to 4 uM by Western blot analysis; assay type: functional, cell-based; details: dose 2-4 µM
A549 [31] = experiment: Induction of apoptosis in human A549 cells assessed as increase in cleaved caspase-3 expression at 2 to 4 uM by Western blot analysis; assay type: functional, cell-based; details: dose 2-4 µM
Lewis lung carcinoma [32] = experiment: Antitumor activity against mouse Lewis lung carcinoma cell line implanted in C57BL/6J mouse assessed as nuclear chromatin marginalization at 0.5 to 1 mg/kg, ip administered every day for 19 days by H and E staining based analysis; assay type: functional, organism-based; details: dose 0.5-1 mg/kg, time 19.0 day

RAF proto-oncogene serine/threonine-protein kinase (Homo sapiens), sequence (P04049 whole entry): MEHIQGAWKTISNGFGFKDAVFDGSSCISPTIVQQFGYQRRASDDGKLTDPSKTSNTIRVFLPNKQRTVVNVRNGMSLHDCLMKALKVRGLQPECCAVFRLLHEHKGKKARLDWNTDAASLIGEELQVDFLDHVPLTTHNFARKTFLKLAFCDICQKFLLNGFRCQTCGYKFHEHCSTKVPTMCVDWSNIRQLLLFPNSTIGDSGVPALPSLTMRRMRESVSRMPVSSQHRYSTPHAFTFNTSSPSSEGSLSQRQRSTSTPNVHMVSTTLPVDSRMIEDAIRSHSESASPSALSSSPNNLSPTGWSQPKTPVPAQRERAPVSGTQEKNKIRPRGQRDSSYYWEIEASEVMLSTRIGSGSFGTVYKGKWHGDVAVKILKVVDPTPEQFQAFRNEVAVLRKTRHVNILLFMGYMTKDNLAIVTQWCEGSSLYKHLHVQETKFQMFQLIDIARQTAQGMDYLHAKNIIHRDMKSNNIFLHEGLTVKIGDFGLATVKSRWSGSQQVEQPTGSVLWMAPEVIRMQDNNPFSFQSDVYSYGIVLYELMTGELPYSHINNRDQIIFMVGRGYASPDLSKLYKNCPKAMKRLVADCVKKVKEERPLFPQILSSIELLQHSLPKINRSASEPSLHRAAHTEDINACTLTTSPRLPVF

Structure (SMILES): CC1=C(OC(=O)/C=C/c2ccccc2)C(=O)C=C2C1=CC=C1[C@@]2(C)CC[C@@]2(C)[C@@H]3C[C@](C)(C(=O)NCc4nc(C)c(C)nc4C)CC[C@]3(C)CC[C@]12C
- Activity (A549 [1]): Active
- inhibition in vivo at 1 mg/kg [2]: 77.4%
- Activity (A549 [3]): 3.04%
- inhibition (A549 [4]): Active
- inhibition [5]: Active
- Activity (A549 [6]): Active
- Activity (Lewis lung carcinoma [7]): Active
- Activity (A549 [8]): Active
- Activity (Lewis lung carcinoma [9]): Active
- Activity (A549 [10]): Tde
- Activity (A549 [11]): Active
- IC50 (Peroxiredoxin-1): 164 nM
- Activity (A549 [12]): Active
- IC50 (NCI-H1975): 1990 nM
- Activity [13]: Non-Toxic
- Activity [14]: Non-Toxic
- Activity [15]: Non-Toxic
- inhibition (A549 [16]): Active
- Activity (A549 [17]): 3.57%
- inhibition (A549 [18]): Tde
- inhibition in vivo at 0.5 mg/kg [19]: 69.9%
- Activity (A549 [20]): Active
- inhibition (A549 [21]): Active
- viability at 2 µM (A549 [22]): 88.4%
- Activity (A549 [23]): 3.13%
- viability at 4 µM (A549 [24]): 45.1%
- Activity (A549 [25]): 33.4%
- Activity (A549 [26]): Active
- IC50 (A549 [27]): 1920 nM
- IC50 (MDA-MB-231): 2670 nM
- Activity [28]: Non-Toxic
- inhibition (A549 [29]): Active
- Activity (A549 [30]): Active
- Activity (A549 [31]): Active
- Activity (Lewis lung carcinoma [32]): Active
